Experimental data from the supplement of paper PMC10307832.

What was measured:
Assay in all cases: relative viability (nuclei count vs DMSO), 5 days (fraction); higher = more cells survive
[1] = compound: OCc1c[nH]c2ccccc12 [Indole-3-carbinol] + N=C(N)NC(=N)NCCc1ccccc1 [Phenformin] (partner 250 µM)
How it was run: (§1)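 Lung cancer cell lines, seeded in 1536-well plates, were treated the following day by pin tool with a single drug or with five library-drug doses (not always all listed) in √10 steps on top of a fixed anchor-drug dose. Cells were fixed and nuclei stained in one step after 5 days, and nuclei were counted. Relative viability is the nuclei count for treated wells divided by that for vehicle wells, reported as medians of duplicate plates.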

[2] = compound: OCc1c[nH]c2ccccc12 [Indole-3-carbinol] + C[C@@H](Oc1cc(-c2cnn(C3CCNCC3)c2)cnc1N)c1c(Cl)ccc(F)c1Cl [Crizotinib] (partner 1 µM)
How it was run: as §1

[3] = compound: OCc1c[nH]c2ccccc12 [Indole-3-carbinol] + COc1cccc2cc(-c3nc([C@H]4CC[C@H](C(=O)O)CC4)n4ncnc(N)c34)[nH]c12 [OSI-027] (partner 0.5 µM)
How it was run: as §1

[4] = compound: OCc1c[nH]c2ccccc12 [Indole-3-carbinol] + Cc1nc(NC(=O)N2CCC[C@H]2C(N)=O)sc1-c1ccnc(C(C)(C)C(F)(F)F)c1 [Alpelisib] (partner 2 µM)
How it was run: as §1

[5] = compound: OCc1c[nH]c2ccccc12 [Indole-3-carbinol] + COc1cc2c(Oc3ccc(NC(=O)C4(C(=O)Nc5ccc(F)cc5)CC4)cc3F)ccnc2cc1OCCCN1CCOCC1 [Foretinib] (partner 0.25 µM)
How it was run: as §1

| Cell Line | relative viability ([1]; first compound 0.253 µM) | relative viability ([1]; first compound 0.8 µM) | relative viability ([1]; first compound 2.53 µM) | relative viability ([1]; first compound 8 µM) | relative viability ([2]; first compound 0.253 µM) | relative viability ([2]; first compound 0.8 µM) | relative viability ([2]; first compound 2.53 µM) | relative viability ([2]; first compound 8 µM) | relative viability ([3]; first compound 0.253 µM) | relative viability ([3]; first compound 0.8 µM) | relative viability ([3]; first compound 2.53 µM) | relative viability ([3]; first compound 8 µM) | relative viability ([4]; first compound 0.253 µM) | relative viability ([4]; first compound 0.8 µM) | relative viability ([4]; first compound 2.53 µM) | relative viability ([4]; first compound 8 µM) | relative viability ([5]; first compound 0.253 µM) | relative viability ([5]; first compound 0.8 µM) | relative viability ([5]; first compound 2.53 µM) | relative viability ([5]; first compound 8 µM) |
| --- | --- | --- | --- | --- | --- | --- | --- | --- | --- | --- | --- | --- | --- | --- | --- | --- | --- | --- | --- | --- |
| NCI-H322M | 0.685 | 0.764 | 0.746 | 0.761 | 1.09 | 0.989 | 1 | 0.892 | 0.521 | 0.504 | 0.521 | 0.527 | 0.774 | 0.82 | 0.86 | 0.8 | 0.827 | 0.998 | 0.876 | 0.829 |
| NCI-H358 | 0.383 | 0.33 | 0.345 | 0.325 | 0.64 | 0.698 | 0.735 | 0.461 | 0.792 | 0.734 | 0.859 | 0.64 | 0.773 | 0.777 | 0.992 | 0.959 | 0.805 | 0.69 | 0.73 | 0.73 |
| NCI-H441 | 0.883 | 1.01 | 0.955 | 0.797 | 0.724 | 0.609 | 0.824 | 0.76 | 0.555 | 0.73 | 0.604 | 0.622 | 0.796 | 0.831 | 0.794 | 0.736 | 0.784 | 1.1 | 0.952 | 1.05 |
| NCI-H460 | 0.535 | 0.482 | 0.53 | 0.498 | 1.03 | 0.895 | 0.925 | 0.851 | 0.594 | 0.621 | 0.632 | 0.6 | 0.458 | 0.457 | 0.563 | 0.517 | 1.03 | 1.02 | 1.02 | 0.992 |
| NCI-H520 | 0.58 | 0.549 | 0.622 | 0.585 | 0.826 | 0.948 | 1.02 | 0.754 | 0.25 | 0.189 | 0.258 | 0.274 | 0.911 | 1.07 | 1.04 | 0.849 | 0.863 | 0.774 | 0.705 | 0.62 |
| NCI-H596 | 0.633 | 0.735 | 0.77 | 0.723 | 0.876 | 1.13 | 0.989 | 1 | 0.759 | 0.761 | 0.726 | 0.866 | 0.387 | 0.48 | 0.417 | 0.47 | 0.921 | 0.885 | 1.05 | 0.791 |
| NCI-H647 | 0.637 | – | 0.569 | 0.446 | 1.23 | 1.13 | 1.04 | 1.01 | 0.595 | – | 0.826 | 0.497 | 1.22 | 1.15 | 1.24 | 1.09 | 1.22 | – | 1.22 | 1.01 |
| NCI-H650 | 0.47 | 0.491 | 0.484 | 0.416 | 0.716 | 0.729 | 0.8 | 0.638 | 0.559 | 0.512 | 0.482 | 0.482 | 1.06 | 1.18 | 1.05 | 0.953 | 1.05 | 1.02 | 1.04 | 0.953 |
| NCI-H661 | 0.281 | 0.253 | 0.272 | 0.266 | 1.05 | – | 1.16 | 0.977 | 0.644 | 0.725 | 0.784 | 0.704 | 0.793 | 0.502 | 0.74 | 0.594 | 1.02 | 1.04 | 1.03 | 1.01 |
| NCI-H727 | 0.532 | 0.502 | 0.458 | 0.673 | 0.795 | 1.05 | 0.906 | 0.832 | 0.544 | 0.517 | 0.548 | 0.771 | 0.583 | 0.562 | 0.535 | 0.603 | 0.744 | 0.891 | 1.05 | 0.886 |
| NCI-H838 | 0.607 | 0.526 | 0.735 | 0.553 | 0.972 | 0.717 | 0.97 | 0.828 | 0.344 | 0.311 | 0.416 | 0.386 | 1.04 | 1.05 | 1.01 | 0.975 | 0.997 | 0.985 | 1.01 | 1.02 |
| NCI-H1355 | 0.48 | 0.455 | 0.435 | 0.462 | 1.17 | 1.08 | 0.971 | 1.06 | 0.403 | 0.44 | 0.363 | 0.396 | 0.809 | 0.875 | 0.766 | 0.672 | 0.961 | 1.01 | 0.998 | 0.978 |
| NCI-H1437 | 0.308 | 0.323 | 0.29 | 0.448 | 0.959 | 1.03 | 0.943 | 0.9 | 0.917 | 0.849 | 0.895 | 0.852 | 0.928 | 1.04 | 0.937 | 0.811 | 1.29 | 1.34 | 1.24 | 1.2 |
| NCI-H1651 | 0.287 | 0.349 | 0.315 | 0.424 | 0.766 | 0.841 | 0.917 | 0.886 | 0.626 | 0.643 | 0.84 | 0.648 | 0.744 | 0.97 | 0.954 | 0.895 | 0.828 | 0.853 | 0.857 | 0.737 |
| NCI-H1666 | 0.592 | 0.515 | 0.582 | 0.558 | 1.11 | 0.994 | 1.42 | 0.892 | 0.7 | 0.878 | 0.874 | 0.876 | 0.804 | 0.998 | 0.906 | 0.916 | 0.932 | 1 | 1.01 | 0.94 |
| NCI-H1734 | 0.406 | 0.394 | 0.34 | 0.333 | 0.72 | 0.777 | 0.637 | 0.632 | 0.506 | 0.631 | 0.634 | 0.582 | 0.692 | 0.725 | 0.719 | 0.674 | 0.91 | 0.802 | 0.887 | 0.674 |
